The target in data set [1] is T1, Class 1 histone deacetylase (Homo sapiens, UniProt Q13547+O15379+Q92769+Q9BY41). The experiment in a line: Inhibition of Class 1 histone deacetylase in human THP-1 cells using Ac-LGK(Ac)-AMC as substrate incubated for 3 hrs followed by 50 uM SAHA addition and measured after 1 hr by fluorescence based assay. Format: cell-based.
The target in a further data set is T2, Histone deacetylase 8 (Homo sapiens, UniProt Q9BY41).
T2 sequence (Q9BY41 whole entry): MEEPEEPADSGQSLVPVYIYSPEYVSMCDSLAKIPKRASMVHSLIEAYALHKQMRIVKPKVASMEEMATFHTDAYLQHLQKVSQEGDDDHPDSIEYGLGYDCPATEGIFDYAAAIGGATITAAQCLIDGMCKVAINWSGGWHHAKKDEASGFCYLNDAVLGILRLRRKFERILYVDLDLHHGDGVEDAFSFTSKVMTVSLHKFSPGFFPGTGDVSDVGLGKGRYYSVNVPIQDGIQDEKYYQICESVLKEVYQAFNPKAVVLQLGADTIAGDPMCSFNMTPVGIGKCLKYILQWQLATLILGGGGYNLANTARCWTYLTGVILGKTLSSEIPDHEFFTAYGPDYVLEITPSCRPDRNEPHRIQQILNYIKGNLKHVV
The experiment in a line: Inhibition of recombinant human HDAC8 using Ac-LGK(TFA)-AMC as substrate preincubated for 30 mins followed by substrate addition and measured after 90 mins by fluorescence based assay.

In a further data set the target is Histone deacetylase 9 (Homo sapiens, UniProt Q9UKV0). The experiment in a line: Inhibition of recombinant human HDAC9 using Ac-LGK(TFA)-AMC as substrate preincubated for 15 mins followed by substrate addition and measured after 60 mins by fluorescence based assay.
In data set [2] the target is T3, Protein deacetylase HDAC6 (Homo sapiens, UniProt Q9UBN7).
T3 sequence (Q9UBN7 whole entry): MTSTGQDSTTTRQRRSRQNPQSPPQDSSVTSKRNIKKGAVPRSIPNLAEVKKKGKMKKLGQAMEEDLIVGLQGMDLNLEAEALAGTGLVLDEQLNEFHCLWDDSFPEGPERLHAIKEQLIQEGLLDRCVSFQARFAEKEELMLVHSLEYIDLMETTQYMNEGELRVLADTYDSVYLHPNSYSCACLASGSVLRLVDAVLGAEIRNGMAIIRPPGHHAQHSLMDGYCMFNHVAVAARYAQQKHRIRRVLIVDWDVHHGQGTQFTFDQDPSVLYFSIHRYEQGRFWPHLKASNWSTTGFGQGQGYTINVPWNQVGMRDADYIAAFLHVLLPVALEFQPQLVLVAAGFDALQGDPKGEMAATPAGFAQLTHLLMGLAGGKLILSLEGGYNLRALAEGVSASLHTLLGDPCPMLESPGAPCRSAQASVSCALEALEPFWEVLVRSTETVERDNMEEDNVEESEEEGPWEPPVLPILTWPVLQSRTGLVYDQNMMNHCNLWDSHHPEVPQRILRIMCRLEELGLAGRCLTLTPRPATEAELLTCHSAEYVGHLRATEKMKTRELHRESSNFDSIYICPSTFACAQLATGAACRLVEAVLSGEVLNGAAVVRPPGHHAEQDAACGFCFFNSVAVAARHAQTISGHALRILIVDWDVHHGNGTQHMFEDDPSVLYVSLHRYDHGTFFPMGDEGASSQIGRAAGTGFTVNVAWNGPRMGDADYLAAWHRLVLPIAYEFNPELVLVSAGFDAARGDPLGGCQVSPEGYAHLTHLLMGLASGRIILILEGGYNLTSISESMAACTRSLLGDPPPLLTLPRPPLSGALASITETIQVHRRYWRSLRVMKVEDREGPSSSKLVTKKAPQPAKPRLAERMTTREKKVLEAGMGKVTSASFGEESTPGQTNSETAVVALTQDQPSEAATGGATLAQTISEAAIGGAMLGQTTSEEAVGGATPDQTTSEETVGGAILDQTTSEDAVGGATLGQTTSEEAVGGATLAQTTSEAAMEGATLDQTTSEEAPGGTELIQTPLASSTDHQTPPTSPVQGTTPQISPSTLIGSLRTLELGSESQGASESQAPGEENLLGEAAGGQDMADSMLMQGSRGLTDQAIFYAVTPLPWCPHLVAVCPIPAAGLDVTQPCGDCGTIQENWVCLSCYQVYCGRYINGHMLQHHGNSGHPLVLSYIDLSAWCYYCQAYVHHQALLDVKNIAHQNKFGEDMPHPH
The experiment in a line: Inhibition of recombinant human HDAC6 using Boc-Lys(Ac)-AMC as substrate pre-incubated for 15 mins followed by substrate addition and measured after 60 mins by fluorescence based assay.

A short description of data set [3]: Solubility of compound in PEG400 in PBS at 10 mg/ml. It is filed as physicochemical.
Data set [4] is described as follows: Inhibition of Class 2a histone deacetylase in human THP-1 cells using Ac-LGK(TFA)-AMC as substrate incubated for 3 hrs followed by 50 uM SAHA addition and measured after 1 hr by fluorescence based assay. It is filed as cell-based.
A short description of data set [5]: Metabolic stability in Sprague-Dawley rat liver microsomes assessed as half life at 5 uM preincubated for 5 mins followed by NADPH addition and measured after 60 mins by LCMS analysis. The settings on record: time 65 min. It is filed as ADME, Microsome. For orientation: Microsomes from liver hold many membrane-bound enzymes, among them those of drug oxidation.

In data set [6] the test system is Macrophage. The experiment in a line: Antiinflammatory activity in human monocytes-derived macrophages assessed as inhibition of LPS-induced IL-12p40 secretion at 30 uM pretreated for 1 hr followed by LPS stimulation and measured after 24 hrs by homogenous time-resolved fluorescence assay. It is filed as functional, cell-based. The settings on record: time 25.0 hrs.

Data set [7] deals with Macrophage. The experiment in a line: Antiinflammatory activity in human monocytes-derived macrophages assessed as inhibition of LPS-induced IL-23 secretion at 30 uM pretreated for 1 hr followed by LPS stimulation and measured after 24 hrs by homogenous time-resolved fluorescence assay. Format: functional, cell-based. Particulars: time 25.0 hrs.
For data set [8], the system named is Macrophage. The experiment in a line: Antiinflammatory activity in human monocytes-derived macrophages assessed as inhibition of LPS-induced IL-1alpha secretion at 30 uM pretreated for 1 hr followed by LPS stimulation and measured after 24 hrs by homogenous time-resolved fluorescence assay. It is filed as functional, cell-based. Particulars: time 25.0 hrs.
The test system of data set [9] is Macrophage. The experiment in a line: Antiinflammatory activity in human monocytes-derived macrophages assessed as inhibition of LPS-induced CCL2 secretion at 30 uM pretreated for 1 hr followed by LPS stimulation and measured after 24 hrs by homogenous time-resolved fluorescence assay. It is filed as functional, cell-based. The settings on record: time 25.0 hrs.

For data set [10], the target named is T1, Class 1 histone deacetylase. The experiment in a line: Inhibition of Class 1 histone deacetylase in human THP-1 cells assessed as accumulation of Histone H4 acetylation levels at 1 to 10 uM incubated for 3 hrs by western blot analysis. Format: cell-based. Particulars: dose 1-10 µM. Background: A western blot detects proteins with antibodies after separation by electrophoresis.

In data set [11] the test system is Macrophage. The experiment in a line: Antiinflammatory activity in human monocytes-derived macrophages assessed as inhibition of LPS-induced GM-CSF secretion at 30 uM pretreated for 1 hr followed by LPS stimulation and measured after 24 hrs by homogenous time-resolved fluorescence assay. Format: functional, cell-based. The settings on record: time 25.0 hrs.
Data set [12] has as its system Macrophage. The experiment in a line: Antiinflammatory activity in human monocytes-derived macrophages assessed as inhibition of LPS-induced IL-6 secretion at 30 uM pretreated for 1 hr followed by LPS stimulation and measured after 24 hrs by homogenous time-resolved fluorescence assay. Format: functional, cell-based. The settings on record: time 25.0 hrs.
Another data set deals with Histone deacetylase 4 (Homo sapiens, UniProt P56524). The experiment in a line: Inhibition of recombinant human HDAC4 using Ac-LGK(TFA)-AMC as substrate pre-incubated for 15 mins followed by substrate addition and measured after 60 mins by fluorescence based assay.
The target in the next data set is Histone deacetylase 1 (Homo sapiens, UniProt Q13547). The experiment in a line: Inhibition of recombinant human HDAC1 using Ac-LGK(Ac)-AMC as substrate preincubated for 30 mins followed by substrate addition and measured after 90 mins by fluorescence based assay.
The next data set has as its target Histone deacetylase 5 (Homo sapiens, UniProt Q9UQL6). The experiment in a line: Inhibition of recombinant human HDAC5 using Ac-LGK(TFA)-AMC as substrate pre-incubated for 15 mins followed by substrate addition and measured after 60 mins by fluorescence based assay.
Data set [13] can be described thus: Metabolic stability in Sprague-Dawley rat liver microsomes assessed as half life at 20 uM preincubated for 5 mins followed by NADPH addition and measured after 60 mins by LCMS analysis. Format: ADME, Microsome. The settings on record: time 65 min.

Calls of active or inactive are those of the source. Some results are limits rather than exact numbers.

Chain of Histone deacetylase 9 (Q9UKV0 whole entry): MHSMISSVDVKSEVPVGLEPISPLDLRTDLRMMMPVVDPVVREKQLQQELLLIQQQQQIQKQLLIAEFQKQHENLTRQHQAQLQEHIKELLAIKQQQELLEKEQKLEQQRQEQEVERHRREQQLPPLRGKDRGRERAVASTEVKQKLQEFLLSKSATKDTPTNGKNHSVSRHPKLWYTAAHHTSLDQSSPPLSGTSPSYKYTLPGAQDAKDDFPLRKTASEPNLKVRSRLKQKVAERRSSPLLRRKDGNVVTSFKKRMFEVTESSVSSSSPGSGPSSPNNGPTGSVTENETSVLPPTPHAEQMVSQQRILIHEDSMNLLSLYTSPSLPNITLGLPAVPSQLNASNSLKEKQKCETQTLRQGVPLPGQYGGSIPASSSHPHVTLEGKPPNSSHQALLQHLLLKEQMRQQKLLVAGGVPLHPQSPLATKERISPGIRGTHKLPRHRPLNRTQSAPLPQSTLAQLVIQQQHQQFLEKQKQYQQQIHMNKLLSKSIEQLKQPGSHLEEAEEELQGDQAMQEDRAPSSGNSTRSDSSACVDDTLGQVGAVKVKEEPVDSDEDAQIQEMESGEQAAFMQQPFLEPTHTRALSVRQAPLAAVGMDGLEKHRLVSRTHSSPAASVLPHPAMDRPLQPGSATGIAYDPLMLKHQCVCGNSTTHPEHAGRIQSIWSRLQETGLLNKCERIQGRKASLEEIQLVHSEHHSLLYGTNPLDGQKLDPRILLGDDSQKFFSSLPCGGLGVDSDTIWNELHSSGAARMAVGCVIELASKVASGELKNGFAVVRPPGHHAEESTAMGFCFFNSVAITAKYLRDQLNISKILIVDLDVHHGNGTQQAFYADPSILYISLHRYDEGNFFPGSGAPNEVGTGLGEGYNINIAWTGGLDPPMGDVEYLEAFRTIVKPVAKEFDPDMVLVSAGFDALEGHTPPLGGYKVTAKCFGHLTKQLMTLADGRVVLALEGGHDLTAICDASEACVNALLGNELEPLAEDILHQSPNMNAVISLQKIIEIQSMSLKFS
Chain of Histone deacetylase 4 (P56524 whole entry): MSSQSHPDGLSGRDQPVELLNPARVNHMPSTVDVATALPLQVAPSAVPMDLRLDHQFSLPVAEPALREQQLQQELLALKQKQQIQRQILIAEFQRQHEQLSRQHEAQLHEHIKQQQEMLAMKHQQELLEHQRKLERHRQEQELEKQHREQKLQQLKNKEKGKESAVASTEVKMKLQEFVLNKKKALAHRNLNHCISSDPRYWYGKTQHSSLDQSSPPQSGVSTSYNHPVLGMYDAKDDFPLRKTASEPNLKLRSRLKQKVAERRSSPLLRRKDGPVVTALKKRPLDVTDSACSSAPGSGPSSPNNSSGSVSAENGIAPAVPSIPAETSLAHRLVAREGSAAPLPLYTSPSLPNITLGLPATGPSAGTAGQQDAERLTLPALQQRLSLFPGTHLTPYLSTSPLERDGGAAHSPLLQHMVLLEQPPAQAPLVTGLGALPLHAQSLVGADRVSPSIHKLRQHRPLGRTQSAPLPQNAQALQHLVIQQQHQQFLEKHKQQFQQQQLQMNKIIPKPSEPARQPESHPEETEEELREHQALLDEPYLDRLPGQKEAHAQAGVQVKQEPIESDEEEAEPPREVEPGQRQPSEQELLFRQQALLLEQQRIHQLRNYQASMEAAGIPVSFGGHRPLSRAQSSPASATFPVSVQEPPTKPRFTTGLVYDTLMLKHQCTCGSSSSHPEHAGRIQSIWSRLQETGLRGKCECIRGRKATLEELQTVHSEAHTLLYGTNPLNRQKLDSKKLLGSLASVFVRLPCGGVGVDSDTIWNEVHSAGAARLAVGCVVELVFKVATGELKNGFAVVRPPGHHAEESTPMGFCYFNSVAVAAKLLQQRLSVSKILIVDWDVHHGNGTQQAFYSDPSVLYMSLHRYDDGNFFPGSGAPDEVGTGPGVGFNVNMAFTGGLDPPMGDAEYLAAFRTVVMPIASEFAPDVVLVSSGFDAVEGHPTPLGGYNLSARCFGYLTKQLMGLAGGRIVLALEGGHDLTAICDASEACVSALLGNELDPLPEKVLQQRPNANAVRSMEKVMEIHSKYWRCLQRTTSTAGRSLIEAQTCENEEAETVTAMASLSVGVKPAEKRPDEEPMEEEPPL
Chain of Histone deacetylase 5 (Q9UQL6 whole entry): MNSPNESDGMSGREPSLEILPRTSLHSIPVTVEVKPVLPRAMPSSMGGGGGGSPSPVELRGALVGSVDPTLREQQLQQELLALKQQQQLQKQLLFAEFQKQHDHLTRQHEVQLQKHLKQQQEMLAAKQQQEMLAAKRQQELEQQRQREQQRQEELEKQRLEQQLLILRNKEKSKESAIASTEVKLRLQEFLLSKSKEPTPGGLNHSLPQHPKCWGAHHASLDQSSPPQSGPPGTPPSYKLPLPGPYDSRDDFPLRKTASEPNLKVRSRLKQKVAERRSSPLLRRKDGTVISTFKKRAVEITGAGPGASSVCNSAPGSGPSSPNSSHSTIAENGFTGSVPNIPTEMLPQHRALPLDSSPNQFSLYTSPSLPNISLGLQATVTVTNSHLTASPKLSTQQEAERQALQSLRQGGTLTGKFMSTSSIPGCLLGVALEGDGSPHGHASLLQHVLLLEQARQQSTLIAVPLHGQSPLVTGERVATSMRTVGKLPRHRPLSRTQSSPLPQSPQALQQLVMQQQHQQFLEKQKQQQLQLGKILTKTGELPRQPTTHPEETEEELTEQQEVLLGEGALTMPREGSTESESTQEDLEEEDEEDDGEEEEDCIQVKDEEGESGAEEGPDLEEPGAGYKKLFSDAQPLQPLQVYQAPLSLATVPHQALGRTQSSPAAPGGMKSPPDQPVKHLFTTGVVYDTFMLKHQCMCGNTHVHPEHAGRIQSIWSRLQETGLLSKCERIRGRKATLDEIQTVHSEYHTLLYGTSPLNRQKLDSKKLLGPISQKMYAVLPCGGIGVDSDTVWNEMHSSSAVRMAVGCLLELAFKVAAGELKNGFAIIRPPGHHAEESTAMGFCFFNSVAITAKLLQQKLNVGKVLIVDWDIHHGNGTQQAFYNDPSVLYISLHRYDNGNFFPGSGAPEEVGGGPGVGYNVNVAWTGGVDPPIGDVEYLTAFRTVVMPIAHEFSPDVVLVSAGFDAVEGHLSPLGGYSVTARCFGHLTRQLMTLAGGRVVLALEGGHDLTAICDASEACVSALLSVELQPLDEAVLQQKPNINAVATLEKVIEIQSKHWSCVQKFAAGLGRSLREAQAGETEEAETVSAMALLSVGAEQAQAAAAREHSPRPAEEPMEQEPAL
Chain of Histone deacetylase 1 (Q13547 whole entry): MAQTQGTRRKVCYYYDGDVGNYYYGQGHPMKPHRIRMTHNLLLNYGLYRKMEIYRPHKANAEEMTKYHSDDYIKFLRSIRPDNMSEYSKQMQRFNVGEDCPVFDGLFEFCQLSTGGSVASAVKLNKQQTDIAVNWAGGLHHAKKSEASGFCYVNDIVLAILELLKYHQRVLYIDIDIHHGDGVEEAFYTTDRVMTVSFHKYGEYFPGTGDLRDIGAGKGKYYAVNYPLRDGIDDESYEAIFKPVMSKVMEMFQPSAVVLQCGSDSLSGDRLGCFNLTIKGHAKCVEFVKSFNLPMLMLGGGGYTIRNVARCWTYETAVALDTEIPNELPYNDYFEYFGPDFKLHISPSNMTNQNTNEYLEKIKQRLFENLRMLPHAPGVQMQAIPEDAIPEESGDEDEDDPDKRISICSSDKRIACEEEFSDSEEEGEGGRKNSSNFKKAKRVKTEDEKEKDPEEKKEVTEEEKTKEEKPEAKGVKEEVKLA

For the compound `O=C(NO)c1ccc(CN2C(=O)c3ccccc3C2=O)cc1-c1ccccc1`, the IC50 (in general, the point on the concentration scale where inhibition reaches its midpoint) in data set [1] is > 30000 nM; on Histone deacetylase 8, 72 nM; on Histone deacetylase 9, 20 nM; in data set [2], 6400 nM; in data set [4], 300 nM. Also, in data set [3], the solubility entry is listed as “Insoluble”. For the same compound, the half-life (usually the time needed for the level to fall by half in the phase considered) at 5 µM in data set [5] was determined as 0.917 h.
In the case of `O=C(NO)c1ccc(CN2C(=O)c3cccc(F)c3C2=O)cc1-c1ccccc1`, the IC50 in [1] is > 30000 nM; at Histone deacetylase 8, 88 nM; at Histone deacetylase 9, 46 nM; in data set [2], 4200 nM; in [4] it was 300 nM. Moreover, the solubility entry in [3] is “Insoluble”. For the same compound, the half-life at 5 µM in data set [5] was 8.08 h.
`O=C(NO)c1ccc(CN2C(=O)c3ccccc3S2(=O)=O)cc1-c1ccccc1`: in the data set on Macrophage [6], the outcome was inactive. Besides, the outcome in the data set with Macrophage [7], in the data set on Macrophage [8], in the data set on Macrophage [9], in the data set on Macrophage [11] and with Macrophage [12] was Active. The IC50 in [1] is > 30000 nM; on Histone deacetylase 8, 71 nM; on Histone deacetylase 9 it was 38 nM; in data set [2] it was 5300 nM; at Histone deacetylase 4 it was 49 nM; in data set [4], 300 nM. For the same compound, the inhibition entry in data set [10] was “inactive”. In [3], the solubility entry is given as “Soluble”. Further, the half-life at 5 µM in [5] turned out to be 3.83 h.
As to `CC(C)(CNC(=O)c1cccc(-c2noc(C(F)(F)F)n2)c1)c1coc(-c2ccccc2)n1`, the outcome in the data set on Macrophage [6] was inactive. Also, the result in the data set with Macrophage [7], in the data set on Macrophage [8], in the data set with Macrophage [9], with Macrophage [11] and in the data set on Macrophage [12] was Active. In addition, the half-inhibitory concentration (IC50) in data set [1] is > 30000 nM; at Histone deacetylase 8 it was 2100 nM; on Histone deacetylase 1, 45000 nM; on Histone deacetylase 9 it was 16 nM; on Histone deacetylase 5 it was 216 nM; at Histone deacetylase 4, 354 nM. Moreover, the IC50 in [4] was 3000 nM. Moreover, in data set [10], the inhibition result is “inactive”. Besides, the half-life at 20 µM in data set [13] was found to be 0.767 h.

For the origin of these results see ChEMBL document CHEMBL4732198, “HDAC7 Inhibition by Phenacetyl and Phenylbenzoyl Hydroxamates” (J Med Chem, 2021).
